{
  "source": "patent US20160129005A1",
  "about": "“ADENINE DERIVATIVES HAVING IMMUNOMODULATING ANTI-INFLAMMATORY AND ANALGESIC ACTIVITY” (MEDESTEA RESEARCH & PRODUCTION S.p.A., priority 2011, published 2016)",
  "key": {"mice": {"tested_on": "mice", "test": "Visceral pain: acetic acid model", "format": "in vivo, mouse", "conditions": "4 mg/kg intraperitoneally; FIG. 20", "method": "We verified the effect of […] on a model of visceral pain. 30 mice were divided into two groups of 15: one group received […] 4 mg/kg intraperitoneally while the other group was treated with only the pharmaceutical vehicle. After the pre-treatment injection, 0.6% acetic acid was administered as a bolus injection 0.3 ml IP. The mice were put in individual observation chambers for assessing, after a period of 20 minutes, the number of contractions induced in each animal following injection of acetic acid. The count started 5 minutes after administration of acetic acid."}, "female NOD mice": {"tested_on": "female NOD mice", "test": "Type 1 diabetes spontaneous model", "format": "in vivo, mouse", "conditions": "0.25 mg intravenously 5 days every two weeks from 11 weeks of age; at the 28th week; carriers 7 out of 14", "excerpt": "NOD (“non-obese diabetic”) mice represent the spontaneous murine model of type 1 diabetes (Adorini et al., 2002). The loss of metabolic control characterized by hyperglycaemia and glycosuria, which defines the disease clinically, is preceded by a long phase called pre-diabetes, during which the response to specific autoantigens of the beta cells of the pancreas develops subclinically, but progressively. In the NOD mice, the disease begins clinically around the 14th week of age when the infiltrating inflammatory cells invade the islets and develop an aggressive insulitis, which leads to destruction of the beta cells and causes hyperglycaemia (Anderson and Bluestone, 2005). The autoreactive CD4+ and CD8+ T cells play a fundamental role in the pathogenesis of type 1 diabetes.\nWe treated female NOD mice at 11 weeks of age with 0.25 mg […] or carriers intravenously for 5 days every two weeks and monitored glycaemia every week. Only one out of 8 mice treated with […] developed diabetes at the 28th week of age, whereas 7 out of 14 mice treated with carriers developed diabetes or died starting from the 14th week of age (FIG. 32)."}, "naive CD4 cells": {"tested_on": "naive CD4 cells", "test": "Induction of T regulatory (Treg) cells from naive CD4 cells", "format": "cell-based, mouse", "conditions": "anti-CD3 stimulation 96 h, increasing concentrations; FIG. 22", "method": "We evaluated the capacity of […] to induce in vitro the differentiation of naive CD4 cells into immunosuppressive Treg cells characterized by the phenotype CD4+CD25+ and by expression of the Foxp3 transcription factor. […] The naive CD4 cells were stimulated with anti-CD3 antibodies for 96 h in the presence of increasing concentrations of […]."}, "C57BL/6 WT mice": {"tested_on": "C57BL/6 WT mice", "test": "Allergic contact dermatitis (TNCB sensitization, ear thickness)", "format": "in vivo, mouse", "conditions": "2 mg/kg injected locally in the auricle 4 hours before stimulus; FIG. 36", "method": "C57BL/6 WT mice are sensitized by applying, on day 0, 100 μl of 3% TNCB (2,4,6-trinitrochlorobenzene) in acetone, or only acetone as control, on the skin of the abdomen.\nAs stress, 20 μl of 1% TNCB is applied on the skin of the back of both ears on day 5. This stress causes an allergic reaction that is manifested as swelling and reddening. The thickness of the ear (symptom of swelling) is measured 24 hours after application of the stimulus, using callipers (Mitutoyo). […] was injected locally in the auricle at a dose of 2 mg/kg 4 hours before the […] stimulus."}, "male Sprague Dawley rats": {"tested_on": "male Sprague Dawley rats", "test": "Pain from chemotherapeutic drugs: model with paclitaxel (von Frey, Hargreaves)", "format": "in vivo, rat", "conditions": "P≦0.001", "method": "One of the best validated models for testing this effect is that described hereunder; repeated administration of paclitaxel to rats. The animals (male Sprague Dawley rats weighing 250-300 g; Harlan, Italy) were treated with paclitaxel (2 mg/kg) administered intraperitoneally on alternate days (day 0,2,4,6). The behavioural tests for thermal and mechanical sensitivity were carried out on day 1 (the day following the first injection of paclitaxel), day 10, day 14 (7 days from the last injection), day 24 (peak severity of hyperalgesia and allodynia), day 30 and day 35 (day on which the animals were sacrificed). The animals (n=15) were divided into three experimental groups. The first group (A) received the treatment with paclitaxel, and was treated daily with […], 6 mg/kg by intraperitoneal injection from day 14 to day 35; the second group (B) treated with paclitaxel, was treated from day 14 to 35 with only the vehicle, and finally the third group consisted of naive animals (C). The results obtained are shown in the bar charts in FIGS. 18 and 19."}, "naive murine CD4+ cells": {"tested_on": "naive murine CD4+ cells", "test": "Activation of naive murine CD4+ T cells in vitro (CFSE, cytofluorimeter, ELISA)", "format": "cell-based, mouse", "excerpt": "The lymphocytes are cells of the immune defences that direct and amplify the response to attack. Their imbalance or malfunction is also at the root of autoimmune diseases. Successful increase in the ratio in favour of Treg cells can restore the equilibrium of the immune response and combat the resultant disorders. We analysed the activation of isolated naive murine CD4+ cells in the cytofluorimeter for the phenotype CD4+CD62L+CD44−CD25−. The cells were labelled with “5,6-carboxyfluorescein diacetate succinimyl ester” (CFSE) and we evaluated cellular proliferation in quantitative acquisitions with the cytofluorimeter based on the dilution of fluorescence, which depends on the proliferative activity of the cell."}, "dendritic cells (DCs)": {"tested_on": "dendritic cells (DCs)", "test": "Maturation of dendritic cells (flow cytometry of membrane antigens)", "format": "cell-based", "method": "The effect of […] on the various stages of maturation of the DCs was evaluated. The study was carried out using flow cytometry by analysing the principal membrane antigens characterizing the stage of differentiation and maturation of the DCs.\nThe DCs were obtained from peripheral whole blood and were plated in a suitable medium (DC medium). The immature DCs (DCi) on day 6 of culture were collected, analysed in the cytofluorimeter and were brought to maturation by stimulation with LPS 10 μg/ml overnight (O.N.). […] 300 μM was added to DC medium during the last 5 hours or simultaneously with maturation of the DCi with LPS (10 μg/ml) overnight. CD1a is a marker of immaturity specific to the DCs, expression of which decreases in mature DCs.\nCD80 and CD86 are fundamental co-stimulatory molecules in the process of antigen presentation, and expression of them generally increases in mature DCs compared to immature DCs."}},
  "data": [
    {"molecule": "C=C(C=O)OC(C=O)n1cnc2c(N)ncnc21", "note": "(stereo not shown) [2-[1-(6-aminopurin-9-yl)-2-oxoethoxy]prop-2-enal]", "values": [
      {"measurement": "visceral pain (number of contractions after acetic acid)", "setting": "mice", "result": "effective in the treatment of visceral pain"},
      {"measurement": "mice that developed diabetes", "setting": "female NOD mice", "result": "one out of 8"},
      {"measurement": "differentiation of naive CD4 cells into Treg cells (CD4+CD25+ Foxp3)", "setting": "naive CD4 cells", "result": "induced the differentiation of Treg cells in a manner that was dependent on the dose used"},
      {"measurement": "allergic reaction (thickness of the ear)", "setting": "C57BL/6 WT mice", "result": "able to inhibit the allergic reaction"},
      {"measurement": "threshold of mechanical sensitivity (von Frey)", "setting": "male Sprague Dawley rats; group A, paclitaxel + IMMUFLAM 6 mg/kg i.p. daily from day 14, day 30, vehicle 11.85±0.61 s", "result": "18.28 ± 0.65", "unit": "s"},
      {"measurement": "threshold of thermal sensitivity (Hargreaves)", "setting": "male Sprague Dawley rats; paclitaxel + IMMUFLAM 6 mg/kg i.p. for twenty-one days (day 35), vehicle 5.82±0.18 s", "result": "10.21 ± 0.34", "unit": "s"},
      {"measurement": "number of proliferating cells (CFSE dilution)", "setting": "naive murine CD4+ cells; 300 μM, FIG. 21", "result": "more than ten-fold reduction"},
      {"measurement": "secretion of interleukin-2", "setting": "naive murine CD4+ cells; ELISA in culture supernatant at 24 h", "result": "significantly reduces"},
      {"measurement": "expression of CD44 and shedding of L-selectin CD62L (cells CD44 positive, CD62L negative)", "setting": "naive murine CD4+ cells; FIG. 21", "result": "significantly reduces"},
      {"measurement": "side scatter of the cells (parameter of activation of CD4 cells)", "setting": "naive murine CD4+ cells; FIG. 21", "result": "reduced"},
      {"measurement": "modulation of CD40 (negative regulation)", "setting": "dendritic cells (DCs); 300 μM", "result": "less marked"},
      {"measurement": "modulation of CD54 (negative regulation)", "setting": "dendritic cells (DCs); 300 μM", "result": "less marked"},
      {"measurement": "class I histocompatibility antigen", "setting": "dendritic cells (DCs); 300 μM, both overnight and at 5 hours", "result": "decreases"},
      {"measurement": "CD80 expression", "setting": "dendritic cells (DCs); DCs matured with LPS, 300 μM", "result": "no effects on CD80"},
      {"measurement": "CD86 expression", "setting": "dendritic cells (DCs); DCs matured with LPS, 300 μM", "result": "negative regulation of CD86"},
      {"measurement": "CD1a expression (marker of immaturity)", "setting": "dendritic cells (DCs); DCs matured with LPS, IMMUFLAM 300 μM at 5 hrs, vs LPS alone", "result": "shown to increase"}
    ]}
  ]
}
